Reference: US20120309796A1, “BENZOCYCLOHEPTENE ACETIC ACIDS” (priority 2011, published 2012)

Target: T1, human CRTH2 (Homo sapiens, UniProt Q9Y5Y4)
T1 sequence (Q9Y5Y4 1-395): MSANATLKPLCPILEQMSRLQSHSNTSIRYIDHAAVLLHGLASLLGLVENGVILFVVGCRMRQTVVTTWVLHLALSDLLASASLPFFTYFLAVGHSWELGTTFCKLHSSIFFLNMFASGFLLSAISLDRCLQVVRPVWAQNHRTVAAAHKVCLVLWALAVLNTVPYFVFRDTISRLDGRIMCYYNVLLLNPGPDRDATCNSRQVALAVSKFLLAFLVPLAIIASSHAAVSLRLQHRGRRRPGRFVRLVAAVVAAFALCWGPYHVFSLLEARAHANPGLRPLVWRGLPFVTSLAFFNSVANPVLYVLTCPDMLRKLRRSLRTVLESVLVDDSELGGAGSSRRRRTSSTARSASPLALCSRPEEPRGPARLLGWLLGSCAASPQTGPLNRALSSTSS
Assay: Human CRTH2 Receptor Binding Assay (whole cell, [3H]ramatroban competition)
Design: two mammalian expression vectors that harbored human CRTH2 and G-alpha16 cDNAs; expressed in transfected cells
Settings: CHO-K1 cells expressing human CRTH2 and G-alpha16; 20 nM [3H]ramatroban; 1 hour, room temperature
From the text: A whole cell receptor binding assay using [^3H]ramatroban as the competing radioactive ligand was employed to evaluate the compound binding activity to human CRTH2. The radioactive ligand [^3H]ramatroban was synthesized according to Sugimoto et. al. (Eur. J. Pharmacol. 2005, 524, 30-37) to a specific activity of 42 Ci/mmol
A cell line stably expressing human CRTH2 was established by transfecting CHO-K1 cells with two mammalian expression vectors that harbored human CRTH2 and G-alpha16 cDNAs, respectively, using FuGene® 6 transfection reagent (from Roche). Stable clones expressing CRTH2 were selected by staining each clone with BM16 (BD Pharmingen™ from BD Biosciences, a division of Becton, Dickinson and Company), which is a rat monoclonal antibody to human CRTH2. The cells were maintained as monolayer cultures in Ham's F-12 medium containing 10% fetal bovine serum, 100 units/mL penicillin, 100 μg/mL streptomycin, 2 mM glutamine, 0.5 mg/mL G418 (geneticin) for CRTH2, and 0.2 mg/mL hygromycin-B (for G-alpha 16). For whole cell receptor binding assay, the monolayer cells were rinsed once with PBS (phosphate buffered saline), dissociated using ethylenediaminetetraacetate (Versene™ EDTA from Lonza Inc.), and suspended in PBS containing 10 mM MgCl2 and 0.06% BSA (bovine serum albumin) at 1.5×10^6 cells/mL.
The binding reactions (0.2 mL) were performed in 96-well plates at room temperature in PBS containing 1.5×10^5 cells, 10 mM MgCl2, 0.06% BSA, 20 nM [^3H]ramatroban, and test compound at various concentrations. After 1 hour of binding reactions, the cells were harvested on GF™/B filter microplates (microtiter plates with embedded glass fiber from PerkinElmer, Inc.) and washed 5 times with PBS using a Filtermate™ Harvester (a cell harvester that harvests and washes cells from microplates from PerkinElmer, Inc.). The radioactivities bound to the cells were determined using a microplate scintillation counter (TopCount® NXT, from PerkinElmer, Inc.) after adding 50 μL of Microscint™ 20 scintillation fluid (from PerkinElmer, Inc.) to each well of the filter plates. The radioactivity from non-specific binding was determined by replacing compound with 10 μM of 15(R)-15-methyl PGD2 (from Cayman Chemical Company) in the reaction mixtures. The radioactivity bound to the cells in the absence of compound (total binding) was determined by replacing compound with 0.25% of DMSO (dimethyl sulfoxide) in the reaction mixture. Specific binding data were obtained by subtracting the radioactivity of non-specific binding from each binding data.
The IC50 value is defined as the concentration of the tested compound that is required for 50% inhibition of total specific binding. In order to calculate the IC50 value, the percent inhibition data were determined for 7 concentrations for each compound. The percent inhibition for a compound at each concentration was calculated according to the following formula, [1-(specific binding in the presence of compound)/(total specific binding)]×100. The IC50 value was then obtained by fitting the percent inhibition data to a sigmoidal dose-response (4 parameter logistic) model in the XLfit® software Excel add-in program [from ID Business Solutions Ltd., model 205, where F(x)=(A+(B−A)/(1+((C/x)̂D)))].

| IC50 | Compound |
| --- | --- |
| 1490 nM | O=C(O)COc1cccc2c1CCCCC2NS(=O)(=O)c1cc(C(F)(F)F)cc(C(F)(F)F)c1 (single isomer, unassigned) [Example 45, [5-(3,5-Bis-trifluoromethyl-benzenesulfonylamino)-6,7,8,9-tetrahydro-5H-benzocyclohepten-1-yloxy]-acetic acid] |
| 2610 nM | O=C(O)COc1cccc2c1CCCCC2NS(=O)(=O)c1cccc(-c2ccccc2)c1 (centres unmarked) [Example 3, [5-(Biphenyl-3-sulfonylamino)-6,7,8,9-tetrahydro-5H-benzocyclohepten-1-yloxy]-acetic acid] |
| 171 nM | O=C(O)COc1cccc2c1CCCCC2NS(=O)(=O)c1cc(F)cc(C(F)(F)F)c1 (centres unmarked) [Example 6, [5-(3-Fluoro-5-trifluoromethyl-benzenesulfonylamino)-6,7,8,9-tetrahydro-5H-benzocyclohepten-1-yloxy]-acetic acid] |
| 64.6 nM | CN(C1CCCCc2c(OCC(=O)O)cccc21)S(=O)(=O)c1cc(F)cc(C(F)(F)F)c1 (centres unmarked) [Example 7, {5-[(3-Fluoro-5-trifluoromethyl-benzenesulfonyl)-methyl-amino]-6,7,8,9-tetrahydro-5H-benzocyclohepten-1-yloxy}-acetic acid] |
| 50.3 nM | CS(=O)(=O)c1cc(S(C)(=O)=O)cc(S(=O)(=O)NC2CCCCc3c(OCC(=O)O)cccc32)c1 (centres unmarked) [Example 10, [5-(3,5-Bis-methanesulfonyl-benzenesulfonylamino)-6,7,8,9-tetrahydro-5H-benzocyclohepten-1-yloxy]-acetic acid] |
| 33.4 nM | CN(C1CCCCc2c(OCC(=O)O)cccc21)S(=O)(=O)c1cc(S(C)(=O)=O)cc(S(C)(=O)=O)c1 (centres unmarked) [Example 11, {5-[(3,5-Bis-methanesulfonyl-benzenesulfonyl)-methyl-amino]-6,7,8,9-tetrahydro-5H-benzocyclohepten-1-yloxy}-acetic acid] |
| 750 nM | CN(C1CCCCc2c(OCC(=O)O)cccc21)S(=O)(=O)c1ccc(-c2ccccc2)cc1 (centres unmarked) [Example 12, {5-[(Biphenyl-4-sulfonyl)-methyl-amino]-6,7,8,9-tetrahydro-5H-benzocyclohepten-1-yloxy}-acetic acid] |
| 158 nM | COc1cc(C(F)(F)F)cc(S(=O)(=O)NC2CCCCc3c(OCC(=O)O)cccc32)c1 (centres unmarked) [Example 13, [5-(3-Methoxy-5-trifluoromethyl-benzenesulfonylamino)-6,7,8,9-tetrahydro-5H-benzocyclohepten-1-yloxy]-acetic acid] |
| 106 nM | COc1cc(C(F)(F)F)cc(S(=O)(=O)N(C)C2CCCCc3c(OCC(=O)O)cccc32)c1 (centres unmarked) [Example 14, {5-[(3-Methoxy-5-trifluoromethyl-benzenesulfonyl)-methyl-amino]-6,7,8,9-tetrahydro-5H-benzocyclohepten-1-yloxy}-acetic acid] |
| 3.3 nM | CC(=O)c1cc(C(F)(F)F)cc(S(=O)(=O)NC2CCCCc3c(OCC(=O)O)cccc32)c1 (centres unmarked) [Example 15, [5-(3-Acetyl-5-trifluoromethyl-benzenesulfonylamino)-6,7,8,9-tetrahydro-5H-benzocyclohepten-1-yloxy]-acetic acid] |
| 5.9 nM | CC(=O)c1cc(C(F)(F)F)cc(S(=O)(=O)N(C)C2CCCCc3c(OCC(=O)O)cccc32)c1 (centres unmarked) [Example 16, {5-[(3-Acetyl-5-trifluoromethyl-benzenesulfonyl)-methyl-amino]-6,7,8,9-tetrahydro-5H-benzocyclohepten-1-yloxy}-acetic acid] |
| 11.4 nM | CS(=O)(=O)c1cc(C(F)(F)F)cc(S(=O)(=O)NC2CCCCc3c(OCC(=O)O)cccc32)c1 (centres unmarked) [Example 17, [5-(3-Methanesulfonyl-5-trifluoromethyl-benzenesulfonylamino)-6,7,8,9-tetrahydro-5H-benzocyclohepten-1-yloxy]-acetic acid] |
| 11.4 nM | CN(C1CCCCc2c(OCC(=O)O)cccc21)S(=O)(=O)c1cc(C(F)(F)F)cc(S(C)(=O)=O)c1 (centres unmarked) [Example 18, {5-[(3-Methanesulfonyl-5-trifluoromethyl-benzenesulfonyl)-methyl-amino]-6,7,8,9-tetrahydro-5H-benzocyclohepten-1-yloxy}-acetic acid] |
| 13 nM | CC(C)c1cccc(-c2ccc(S(=O)(=O)NC3CCCCc4c(OCC(=O)O)cccc43)cc2)c1 (centres unmarked) [Example 19, [5-(3′-Isopropyl-biphenyl-4-sulfonylamino)-6,7,8,9-tetrahydro-5H-benzocyclohepten-1-yloxy]-acetic acid] |
| 106 nM | CC(C)c1cccc(-c2ccc(S(=O)(=O)N(C)C3CCCCc4c(OCC(=O)O)cccc43)cc2)c1 (centres unmarked) [Example 20, {5-[(3′-Isopropyl-biphenyl-4-sulfonyl)-methyl-amino]-6,7,8,9-tetrahydro-5H-benzocyclohepten-1-yloxy}-acetic acid] |
| 34.7 nM | Cc1cc(-c2ccc(S(=O)(=O)NC3CCCCc4c(OCC(=O)O)cccc43)cc2)cc(C(C)(C)C)c1 (centres unmarked) [Example 21, [5-(3′-tert-Butyl-5′-methyl-biphenyl-4-sulfonylamino)-6,7,8,9-tetrahydro-5H-benzocyclohepten-1-yloxy]-acetic acid] |
| 189 nM | Cc1cc(-c2ccc(S(=O)(=O)N(C)C3CCCCc4c(OCC(=O)O)cccc43)cc2)cc(C(C)(C)C)c1 (centres unmarked) [Example 22, {5-[(3′-tert-Butyl-5′-methyl-biphenyl-4-sulfonyl)-methyl-amino]-6,7,8,9-tetrahydro-5H-benzocyclohepten-1-yloxy}-acetic acid] |
| 987 nM | CN(C1CCCCc2c(OCC(=O)O)cccc21)S(=O)(=O)c1ccc(-c2ccc(O)cc2)cc1 (centres unmarked) [Example 24, {5-[(4′-Hydroxy-biphenyl-4-sulfonyl)-methyl-amino]-6,7,8,9-tetrahydro-5H-benzocyclohepten-1-yloxy}-acetic acid] |
| 1500 nM | Cc1cncc(-c2ccc(S(=O)(=O)N(C)C3CCCCc4c(OCC(=O)O)cccc43)cc2)c1 (centres unmarked) [Example 26, (5-{Methyl-[4-(5-methyl-pyridin-3-yl)-benzenesulfonyl]-amino}-6,7,8,9-tetrahydro-5H-benzocyclohepten-1-yloxy)-acetic acid] |
| 24.3 nM | CSc1cccc(-c2ccc(S(=O)(=O)NC3CCCCc4c(OCC(=O)O)cccc43)cc2)c1 (centres unmarked) [Example 27, [5-(3′-Methylsulfanyl-biphenyl-4-sulfonylamino)-6,7,8,9-tetrahydro-5H-benzocyclohepten-1-yloxy]-acetic acid] |
| 603 nM | CSc1cccc(-c2ccc(S(=O)(=O)N(C)C3CCCCc4c(OCC(=O)O)cccc43)cc2)c1 (centres unmarked) [Example 28, {5-[Methyl-(3′-methylsulfanyl-biphenyl-4-sulfonyl)-amino]-6,7,8,9-tetrahydro-5H-benzocyclohepten-1-yloxy}-acetic acid] |
| 189 nM | CN(C1CCCCc2c(OCC(=O)O)cccc21)S(=O)(=O)c1ccc(-c2cccc(S(C)(=O)=O)c2)cc1 (centres unmarked) [Example 30, {5-[(3′-Methanesulfonyl-biphenyl-4-sulfonyl)-methyl-amino]-6,7,8,9-tetrahydro-5H-benzocyclohepten-1-yloxy}-acetic acid] |
| 123 nM | CC(C)c1cccc(-c2ccc(S(=O)(=O)N(C)C3CCCCc4c(OCC(=O)O)cccc43)nc2)c1 (centres unmarked) [Example 32, (5-{[5-(3-Isopropyl-phenyl)-pyridine-2-sulfonyl]-methyl-amino}-6,7,8,9-tetrahydro-5H-benzocyclohepten-1-yloxy)-acetic acid] |
